Reference: patent US4416870A, “Antibiotic compound, its production and its medicinal use” (Bayer Aktiengesellschaft, priority 1981, dated 1983)
*1 amine or outer side, *2 acyl side, *3 side chain or, on linkers, in order; H or OH if unused. Where a SMILES comes first, the peptide text is derived from it. [ ]: non-standard residue; d: D form. ξ: configuration not given here. X1 = Cn1c(=O)ccn(C2SC(C(O)C(N[*:1])C(=O)[*:2])C(O)C2O)c1=O; ξOrn(N(OH)Ac) = CC(=O)N(O)CCCC(N)C(=O)O; ξS = NC(CO)C(=O)O

Experiments:
[1] = test system: Klebsiella pneumoniae 63; assay: Animal test (mice), ED100 after intraperitoneal infection and subcutaneous treatment (Example B); format: in vivo, mice infected with Klebsiella pneumoniae; details: sc, dose at which all infected and treated animals survive
Protocol: (§1) BAYi 3265 component A animal test (mice) | ED100 after intraperitoneal | infection and subcutaneous |Infecting germ treatment in mg/kg The animals were infected with a quantity of bacteria, which quantity led to the death of the control animals within 24 hours. The ED100 was the dose which allowed all infected and treated animals to survive.

[2] = test system: E. coli 205 Kn; assay: as above; format: in vivo, mice infected with E. coli; details: Escherichia coli, sc, dose at which all infected and treated animals survive
Protocol: as §1

[3] = test system: E. coli Neumann; assay: as above; format: in vivo, mice infected with E. coli; details: Escherichia coli, sc, dose at which all infected and treated animals survive
Protocol: as §1

[4] = test system: E. coli Neumann; assay: White mouse, ED100 (complete cure) on infection with E. coli Neumann, single subcutaneous application; format: in vivo, white mouse infected with E. coli; details: Escherichia coli, sc, 0.5 h, once, 30 minutes after infection, subcutaneously
Protocol: For the white mouse, an ED100 (complete cure) is found in vivo, at 3 mg of antibiotic/kg of body weight, on infection with E. coli Neumann; therapy: application once, 30 minutes after infection, subcutaneously.

[5] = physchem; details: organic solvent or mixture

CC(=O)N(O)CCCC(N)C(=O)NC(CCCN(O)C(C)=O)C(=O)NC(CCCN(O)C(C)=O)C(=O)NC(CO)C(=O)NC(C(=O)O)C(O)C1SC(n2ccc(=O)n(C)c2=O)C(O)C1O (centres unmarked) [BAYi 3265 Component A] (H-[ξOrn(N(OH)Ac)][ξOrn(N(OH)Ac)][ξOrn(N(OH)Ac)][ξS][X1]-OH)
ED100 [1]: 0.2 mg/kg | ED100 [2]: 0.1 mg/kg | ED100 [3]: 0.5 mg/kg | ED100 [4]: 3 mg/kg | solubility ([5]; chloroform): < 100 µg/mL | solubility ([5]; dimethylformamide): < 10000 µg/mL | solubility ([5]; dimethylsulphoxide): < 10000 µg/mL | solubility ([5]; ether): < 100 µg/mL | solubility ([5]; ethyl acetate): < 100 µg/mL | solubility ([5]; methanol): < 10000 µg/mL | solubility ([5]; petroleum ether): < 100 µg/mL
